Experiments:
Type in all cases: physicochemical
[1] = Evaluation of durability of optically anisotropic layer (moisture-heat resistance test); conditions: rate of change in Re of cured layer (25 parts compound, 75 parts L-1), 136 hours at 100° C., humidity 95%
Method: (§1) As shown below, the light resistance and the durability of the optically anisotropic layer produced using the composition containing each of the compounds A-1 to A-11 and the compounds B-1 and B-2 were evaluated.
(§2) A coating liquid having the following composition was prepared and applied by spin-coating, onto a rubbing-treated glass attached with an alignment film. Each composition was irradiated with ultraviolet rays of 300 mJ/cm^2 through a filter that cuts light having a wavelength of 350 nm or less on a hot plate which had been heated to a temperature at which a nematic phase is shown, whereby an optically anisotropic layer for a light resistance/durability test was produced.
(§3) The polymerizable liquid crystal compound L-1 is a mixture obtained by mixing at a
(§4) ratio of the following L-1-1/L-1-2/L-1-3=84/14/2 (in terms of mass ratio).
(§5) Rate of change in Re (%)=[100×{|(Re after test)−(Re before test)|}/(Re before test)]
(§6) Re was measured with Axoscan manufactured by Axometrics Inc. at a wavelength of 550 nm, and the measurement temperature was set to room temperature.
The produced optically anisotropic layer was allowed to be left for 136 hours at 100° C. and a humidity of 95%, whereby a moisture-heat resistance test was carried out. The rate of change in Re before and after the durability test was evaluated, the durability in a case where the rate of change in Re was less than 10% was evaluated as A, and the durability in a case where the rate of change in Re was 10% or more was evaluated as B. The smaller the rate of change in Re, the more excellent the durability.

[2] = Measurement of Δn (refractive index anisotropy), wedge-shaped liquid crystal cell; conditions: 550 nm, 30° C. or lower limit temperature of nematic phase +0 to 10° C.; some compounds extrapolated from 1/2 mixture with L-1-1
Method: The Δn of each of the compounds (the compounds A-1 to A-11 and the compounds B-1 and B-2), which are the compounds to be measured, was measured by a method using a wedge-shaped liquid crystal cell described on page 202 in the Liquid crystal handbook (edited by the liquid crystal handbook editorial board, published by Maruzen Co., Ltd., 2000). Δn was defined as a measured value at a wavelength of 550 nm at 30° C. or the lower limit temperature of the nematic phase +0° C. to 10° C. In a case of a compound which is liable to crystallize or a compound having no liquid crystallinity, evaluation was carried out using a mixture thereof with the other liquid crystal compound, and Δn was estimated from the extrapolated value of the measured value thereof. The following L-1-1 was used as the other liquid crystal compound. As the above mixture, a mixture obtained by mixing at a ratio of the compound to be measured/the L-1-1=1/2 (in terms of mass ratio) was used.
A case where Δn was 0.40 or more was evaluated as A, a case where Δn was 0.35 or more and less than 0.40 was evaluated as B, a case where Δn was 0.30 or more and less than 0.35 was evaluated as C, and a case where Δn was less than 0.30 was evaluated as D. The results are shown in Table 1.

[3] = Evaluation of solubility in cyclopentanone; conditions: precipitation concentration in cyclopentanone at 25° C.
Method: The solubility of each of the compounds (the compounds A-1 to A-11 and the compounds B-1 and B-2) in cyclopentanone was evaluated.

[4] = Evaluation of light resistance of optically anisotropic layer (Super Xenon Weather Meter); conditions: rate of change in Re of cured layer (25 parts compound, 75 parts L-1), 5 million lx, 50 hours, 63° C., 50% RH, oxygen-blocking
Method: as §1, §2, §3, §4
The produced optically anisotropic layers for light resistance/durability tests were irradiated with light using a Super Xenon Weather Meter SX75 manufactured by Suga Test Instruments Co., Ltd. Using KU-1000100 manufactured by King Seisakusho Co., Ltd. as a UV cut filter, a light resistance test was carried out by irradiation with 5 million lx of light for 50 hours under an oxygen-blocking condition. The temperature of the specimen to be tested (the temperature inside the test device) was set to 63° C. The relative humidity in the test device was 50% RH.
The Re of the optically anisotropic layer before and after the light resistance test was measured, the light resistance in a case where the rate of change in Re described below was less than 10% was evaluated as A, and the light resistance in a case where the rate of change in Re was 10% or more was evaluated as B. The smaller the rate of change in Re, the more excellent the light resistance.
as §5, §6

[5] = Evaluation of liquid crystallinity (hot stage, polarization microscope); set-up: key: A case of having liquid crystallinity was evaluated as A; a case of having no liquid crystallinity was evaluated as B; conditions: heated on a hot stage
Method: The respective compounds (the compounds A-1 to A-11 and the compounds B-1 and B-2) were heated on a hot stage and observed with a polarization microscope, and the phase transition temperature was measured to evaluate the presence or absence of the liquid crystallinity. A case of having liquid crystallinity was evaluated as A, and a case of having no liquid crystallinity was evaluated as B. The results are shown in Table 1.
Since the compound A-8 has melting points of 200° C. or higher and undergoes a polymerization reaction during heating, liquid crystallinity could not be evaluated.

Row | Compound | Liquid crystallinity [5] | Durability [1] | Δn [2] | Solubility [3] | Light resistance [4]
1 | C=CC(=O)OCCSc1ccc(C#Cc2cc(C)c(OCc3ccc4cc(C#Cc5ccc(SCCOC(=O)C=C)cc5)ccc4c3)c(C)c2)cc1 [Compound A-4] | A | A (the durability in a case where the rate of change in Re was less than 10% was evaluated as A) | A (A case where Δn was 0.40 or more was evaluated as A) | A (the solubility in a case where the precipitation concentration was 5% by mass or more was evaluated as A) | A (the light resistance in a case where the rate of change in Re described below was less than 10% was evaluated as A)
2 | C=CC(=O)OCCSc1ccc(C#Cc2ccc(-c3ccc(COc4ccc(C#Cc5ccc(SCCOC(=O)C=C)cc5)cc4C(=O)OC)cc3)cc2)cc1 [Compound A-6] | A | A (the durability in a case where the rate of change in Re was less than 10% was evaluated as A) | A (A case where Δn was 0.40 or more was evaluated as A) | A (the solubility in a case where the precipitation concentration was 5% by mass or more was evaluated as A) | A (the light resistance in a case where the rate of change in Re described below was less than 10% was evaluated as A)
3 | COC(=O)c1cc(C#Cc2ccc(CCOC(C)=O)cc2)ccc1OCc1ccc(-c2ccc(C#Cc3ccc(CCOC(C)=O)cc3)cc2)cc1 [Compound A-7] | A | B (the durability in a case where the rate of change in Re was 10% or more was evaluated as B) | B (a case where Δn was 0.35 or more and less than 0.40 was evaluated as B) | A (the solubility in a case where the precipitation concentration was 5% by mass or more was evaluated as A) | A (the light resistance in a case where the rate of change in Re described below was less than 10% was evaluated as A)
4 | C=CC(=O)OCCSc1ccc(C#Cc2ccc(OCc3ccc4cc(C#Cc5ccc(SCCOC(=O)C=C)cc5)ccc4c3)cc2)cc1 [Compound A-8] |  | A (the durability in a case where the rate of change in Re was less than 10% was evaluated as A) | A (A case where Δn was 0.40 or more was evaluated as A) | B (the solubility in a case where the precipitation concentration was less than 5% by mass was evaluated as B) | A (the light resistance in a case where the rate of change in Re described below was less than 10% was evaluated as A)
5 | C=CC(=O)OCCCCSc1nc2ccc(C#Cc3ccc(OCc4ccc5cc(C#Cc6ccc7nc(SCCCCOC(=O)C=C)sc7c6)ccc5c4)c(C(=O)OC)c3)cc2s1 [Compound A-9] | A | A (the durability in a case where the rate of change in Re was less than 10% was evaluated as A) | A (A case where Δn was 0.40 or more was evaluated as A) | B (the solubility in a case where the precipitation concentration was less than 5% by mass was evaluated as B) | B (the light resistance in a case where the rate of change in Re was 10% or more was evaluated as B)
6 | C=CC(=O)OCCSc1ccc(C#Cc2ccc(OC(=O)c3ccc4cc(C#Cc5ccc(SCCOC(=O)C=C)cc5)ccc4c3)c(C(=O)OC)c2)cc1 [Compound A-10] | A | A (the durability in a case where the rate of change in Re was less than 10% was evaluated as A) | A (A case where Δn was 0.40 or more was evaluated as A) | A (the solubility in a case where the precipitation concentration was 5% by mass or more was evaluated as A) | B (the light resistance in a case where the rate of change in Re was 10% or more was evaluated as B)
7 | CC(=O)OCCCCCCCCCCOc1ccc(C#Cc2ccc(OC(=O)c3ccc(C#Cc4ccc(OCCCCCCCCCCOC(C)=O)c(F)c4)cc3)cc2)cc1F [Compound B-1, reference compound] | A | A (the durability in a case where the rate of change in Re was less than 10% was evaluated as A) | D (a case where Δn was less than 0.30 was evaluated as D) | A (the solubility in a case where the precipitation concentration was 5% by mass or more was evaluated as A) | B (the light resistance in a case where the rate of change in Re was 10% or more was evaluated as B)

Second part, led by results:

Row | Liquid crystallinity [5] | Compound | Durability [1] | Δn [2] | Solubility [3] | Light resistance [4]
8 | A | C=CC(=O)OCCc1ccc(C#Cc2ccc(-c3ccc(COc4ccc(C#Cc5ccc(CCOC(=O)C=C)cc5)cc4C(=O)OC)cc3)cc2)cc1 [Compound A-1] | A (the durability in a case where the rate of change in Re was less than 10% was evaluated as A) | B (a case where Δn was 0.35 or more and less than 0.40 was evaluated as B) | A (the solubility in a case where the precipitation concentration was 5% by mass or more was evaluated as A) | A (the light resistance in a case where the rate of change in Re described below was less than 10% was evaluated as A)
9 | A | C=CC(=O)OCCSc1ccc(C#Cc2ccc(OCc3ccc4cc(C#Cc5ccc(SCCOC(=O)C=C)cc5)ccc4c3)c(C(=O)OC)c2)cc1 [Compound A-2] | A (the durability in a case where the rate of change in Re was less than 10% was evaluated as A) | A (A case where Δn was 0.40 or more was evaluated as A) | A (the solubility in a case where the precipitation concentration was 5% by mass or more was evaluated as A) | A (the light resistance in a case where the rate of change in Re described below was less than 10% was evaluated as A)
10 | A | C=CC(=O)OCCSc1ccc(C#Cc2ccc(OCc3ccc4cc(C#Cc5ccc(SCCOC(=O)C=C)cc5)ccc4c3)c(C(=O)OCC)c2)cc1 [Compound A-3] | A (the durability in a case where the rate of change in Re was less than 10% was evaluated as A) | A (A case where Δn was 0.40 or more was evaluated as A) | A (the solubility in a case where the precipitation concentration was 5% by mass or more was evaluated as A) | A (the light resistance in a case where the rate of change in Re described below was less than 10% was evaluated as A)
11 | A | C=CC(=O)OCCc1ccc(C#Cc2ccc(OCc3ccc4cc(C#Cc5ccc(CCOC(=O)C=C)cc5)ccc4c3)c(C(=O)OC)c2)cc1 [Compound A-11] | A (the durability in a case where the rate of change in Re was less than 10% was evaluated as A) | B (a case where Δn was 0.35 or more and less than 0.40 was evaluated as B) | A (the solubility in a case where the precipitation concentration was 5% by mass or more was evaluated as A) | A (the light resistance in a case where the rate of change in Re described below was less than 10% was evaluated as A)

— patent publication US20240182785A1, “COMPOUND, COMPOSITION, CURED PRODUCT, OPTICALLY ANISOTROPIC BODY, OPTICAL ELEMENT, AND LIGHT GUIDE ELEMENT” (FUJIFILM Corporation, priority 2021, published 2024)
